# Earlier results, collected in US20250041228A1, “ORAL FORMULATION OF A PYRIDINONE DERIVATE AND USE THEREOF IN PROPHYLAXIS AND/OR TREATMENT OF INTESTINAL FIBROSIS” (Dr. Falk Pharma GmbH, priority 2021, published 2025).
# Target: T1, transglutaminase 2 (Homo sapiens, UniProt P21980)
# T1 sequence (P21980 1-687): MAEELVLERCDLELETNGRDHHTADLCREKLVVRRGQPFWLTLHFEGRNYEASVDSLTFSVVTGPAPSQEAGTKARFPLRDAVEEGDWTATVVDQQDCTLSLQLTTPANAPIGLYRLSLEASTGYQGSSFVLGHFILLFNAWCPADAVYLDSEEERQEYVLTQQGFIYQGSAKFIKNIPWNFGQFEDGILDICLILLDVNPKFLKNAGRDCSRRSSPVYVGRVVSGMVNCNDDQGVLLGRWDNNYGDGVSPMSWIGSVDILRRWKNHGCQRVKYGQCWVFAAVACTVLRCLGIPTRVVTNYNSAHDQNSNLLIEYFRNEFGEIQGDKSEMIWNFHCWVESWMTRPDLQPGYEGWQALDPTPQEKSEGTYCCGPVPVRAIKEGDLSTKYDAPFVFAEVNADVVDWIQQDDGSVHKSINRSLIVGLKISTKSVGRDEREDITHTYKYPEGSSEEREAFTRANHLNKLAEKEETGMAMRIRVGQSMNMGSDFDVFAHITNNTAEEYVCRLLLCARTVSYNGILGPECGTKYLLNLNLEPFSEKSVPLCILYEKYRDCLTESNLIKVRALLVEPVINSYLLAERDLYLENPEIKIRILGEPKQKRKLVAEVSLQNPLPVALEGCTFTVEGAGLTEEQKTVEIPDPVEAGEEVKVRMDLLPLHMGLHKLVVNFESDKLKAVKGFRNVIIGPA
# Conditions: background statement, no data
smiles,measurement,value
"CCC(CC)CNC(=O)Cn1cccc(NC(=O)[C@H](CC/C=C/C(=O)OC)NC(=O)c2cncn2C)c1=O [Compound 1, (S,E)-methyl-7-(1-(2-(2-ethylbutylamino)-2-oxoethyl)-2-oxo-1,2-dihydro-pyridin-3-ylamino)-6-(1-methyl-1H-imidazole-5-carboxamido)-7-oxohept-2-enoate]",inhibitor against transglutaminase 2,effective inhibitor
